According to the Kinase Knowledgebase extract (Sharma et al. 2016):
In brackets after ≈: the same amount, converted by molar mass. Several values for one entry are separate records, joined by “and”; a condition that tells them apart may be missing. Equal entries are not always repeated.

biological target: EGFR (UniProt P00533)
Sequence (P00533 whole entry, looked up): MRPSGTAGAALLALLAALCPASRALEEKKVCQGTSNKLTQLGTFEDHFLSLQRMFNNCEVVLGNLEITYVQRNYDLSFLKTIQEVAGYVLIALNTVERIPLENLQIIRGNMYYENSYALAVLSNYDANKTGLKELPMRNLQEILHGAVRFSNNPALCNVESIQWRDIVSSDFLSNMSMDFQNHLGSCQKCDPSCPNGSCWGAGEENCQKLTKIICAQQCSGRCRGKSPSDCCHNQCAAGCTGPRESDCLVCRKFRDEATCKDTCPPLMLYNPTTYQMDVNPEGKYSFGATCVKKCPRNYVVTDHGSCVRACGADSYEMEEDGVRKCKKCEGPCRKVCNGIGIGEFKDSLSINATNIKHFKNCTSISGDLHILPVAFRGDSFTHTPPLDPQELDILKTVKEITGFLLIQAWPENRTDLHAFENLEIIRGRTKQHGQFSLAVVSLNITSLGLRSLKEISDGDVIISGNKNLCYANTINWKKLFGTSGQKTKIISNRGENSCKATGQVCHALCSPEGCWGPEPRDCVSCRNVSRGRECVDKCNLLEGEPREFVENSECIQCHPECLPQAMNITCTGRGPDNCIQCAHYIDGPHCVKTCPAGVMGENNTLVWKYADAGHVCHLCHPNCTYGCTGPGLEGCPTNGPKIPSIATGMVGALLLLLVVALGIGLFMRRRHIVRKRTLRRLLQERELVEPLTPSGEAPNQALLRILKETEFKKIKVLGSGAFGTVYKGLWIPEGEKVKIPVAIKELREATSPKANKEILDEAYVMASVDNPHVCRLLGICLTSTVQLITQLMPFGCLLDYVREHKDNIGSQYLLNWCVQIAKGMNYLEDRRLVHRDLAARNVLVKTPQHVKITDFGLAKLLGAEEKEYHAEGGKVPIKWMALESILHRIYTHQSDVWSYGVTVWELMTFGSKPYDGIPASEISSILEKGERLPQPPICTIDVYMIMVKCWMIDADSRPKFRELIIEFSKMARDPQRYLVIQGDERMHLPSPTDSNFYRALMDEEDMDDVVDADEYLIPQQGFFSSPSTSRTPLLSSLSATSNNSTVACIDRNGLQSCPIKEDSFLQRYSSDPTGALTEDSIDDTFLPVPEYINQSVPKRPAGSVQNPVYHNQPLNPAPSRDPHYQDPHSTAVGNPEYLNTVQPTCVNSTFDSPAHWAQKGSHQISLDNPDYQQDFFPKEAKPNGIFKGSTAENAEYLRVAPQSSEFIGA

Row | Structure (SMILES) | IC50
1 | CCN(CC)CCOc1ccc(Nc2ncnc(Nc3cc(OC)c(OC)c(OC)c3)n2)cc1OC | 0.4 to 2.4 µg/mL (≈ 0.802 to 4.81 µM)
2 | CC(C)Nc1ncccc1-c1ncnc(Nc2cccc(CO)c2)n1 | 3.5 to 4.5 µg/mL (≈ 10.4 to 13.4 µM)
3 | CCC(O)CNc1ncnc(Nc2ccc(OC)c(OC)c2)n1 (stereo not given) | > 4.5 µg/mL
4 | c1ccc(Cn2ncc3cc(Nc4ncnc(NCc5ccco5)n4)ccc32)cc1 | 0.4 to 2.4 µg/mL (≈ 1.01 to 6.04 µM)
5 | COc1cc(OC)nc(Nc2ncnc(-n3c(=O)[nH]c4ccccc43)n2)n1 | > 4.5 µg/mL
6 | COc1cc(Nc2ncnc(-n3ccnc3NCc3ccccc3)n2)cc(OC)c1OC | > 4.5 µg/mL
7 | COc1cc(Nc2ncnc(N3c4ccccc4CC3C)n2)cc(OC)c1OC (stereo not given) | 0.4 to 2.4 µg/mL (≈ 1.02 to 6.1 µM)
8 | Nc1nc2ccccc2n1-c1ncnc(Nc2ccc(N3CCOCC3)cc2)n1 | 3.5 to 4.5 µg/mL (≈ 9.01 to 11.6 µM)
9 | COC(=O)Cc1cccc(Nc2ncnc(-n3c(N)nc4ccccc43)n2)c1 | 2.4 to 3.5 µg/mL (≈ 6.39 to 9.32 µM)
10 | O=c1[nH]c2ccccc2n1-c1ncnc(Nc2cccc3ncccc23)n1 | > 4.5 µg/mL
11 | COc1cc(Nc2ncnc(-c3ccc(NCCCN)nc3)n2)cc(OC)c1OC | > 4.5 µg/mL
12 | CN(c1cccc(Cl)c1)c1ncnc(Nc2ncccn2)n1 | < 0.4 µg/mL
13 | COc1cc(Nc2ncnc(-n3c(Nc4cccc(C)c4)nc4ccccc43)n2)cc(OC)c1OC | > 4.5 µg/mL
14 | O=c1[nH]c2ccccc2n1-c1ncnc(Nc2ccc(OC(F)(F)F)cc2)n1 | > 4.5 µg/mL
15 | COc1cc(Nc2ncnc(Nc3nnc(-c4ccccc4)[nH]3)n2)cc(OC)c1OC | > 4.5 µg/mL
16 | COc1ccc(Nc2ncnc(Nc3ccc4c(c3)CCC4)n2)cc1OC | 0.4 to 2.4 µg/mL (≈ 1.1 to 6.6 µM)
17 | O=c1[nH]c2ccccc2n1-c1ncnc(Nc2cccc3cccnc23)n1 | > 4.5 µg/mL
18 | CCc1cccc(Nc2ncnc(-n3c(N)nc4ccccc43)n2)c1 | 0.4 to 2.4 µg/mL (≈ 1.21 to 7.24 µM)
19 | Nc1ncnc(Nc2ccc(F)cc2F)n1 | > 4.5 µg/mL
20 | O=c1[nH]c2ccccc2n1-c1ncnc(Nc2cc(C(F)(F)F)cc(C(F)(F)F)c2)n1 | > 4.5 µg/mL
21 | O=C(O)CCNC(=O)c1ccc(Nc2ncnc(Nc3cc(-c4ccco4)[nH]n3)n2)cc1 | 0.4 to 2.4 µg/mL (≈ 0.921 to 5.52 µM)
22 | COc1ccccc1Nc1ncnc(-n2cccc2)n1 | > 4.5 µg/mL
23 | CCCN(CC1CC1)c1ncnc(Nc2cc(OC)c(OC)c(OC)c2)n1 | 3.5 to 4.5 µg/mL (≈ 9.37 to 12 µM)
24 | COc1cc(Nc2ncnc(Oc3ccc(OCc4ccccc4)cc3)n2)cc(OC)c1OC | > 4.5 µg/mL
25 | Clc1ccc(-c2csc(Nc3ncnc(-n4cccc4)n3)n2)cc1 | > 4.5 µg/mL

Row | Structure (SMILES) | IC50
26 | COc1ccc2c(c1)c(CCN(C)C)cn2-c1ncnc(Nc2cc(OC)c(OC)c(OC)c2)n1 | > 4.5 µg/mL
27 | COc1ccc(Nc2nc3ccccc3n2-c2ncnc(Nc3cc(OC)c(OC)c(OC)c3)n2)c(C)c1 | > 4.5 µg/mL
28 | COc1cc(Nc2ncnc(-n3c(=O)sc4cc(Br)ccc43)n2)cc(OC)c1OC | > 4.5 µg/mL
29 | COc1cc(Nc2ncnc(N3c4ccccc4CCC3C)n2)cc(OC)c1OC (stereo not given) | 0.4 to 2.4 µg/mL (≈ 0.982 to 5.89 µM)
30 | COc1cc(Nc2ncnc(-c3cccnc3)n2)cc(OC)c1OC | > 4.5 µg/mL
31 | COc1cc(Nc2ncnc(-c3ccc(NCCCO)nc3)n2)cc(OC)c1OC | > 4.5 µg/mL
32 | COC(=O)c1ccc(-c2cc(Nc3ncnc(Nc4cc(F)cc(F)c4)n3)[nH]n2)cc1 | > 4.5 µg/mL
33 | CCC(Nc1nc2ccccc2n1-c1ncnc(Nc2cc(OC)c(OC)c(OC)c2)n1)c1ccccc1 (stereo not given) | 0.4 to 2.4 µg/mL (≈ 0.782 to 4.69 µM)
34 | NC(=O)Cc1cccc(Nc2ncnc(Nc3cccc(Br)c3)n2)c1 | < 0.4 µg/mL
35 | CCOC(=O)C(Nc1nc2ccccc2n1-c1ncnc(Nc2cc(OC)c(OC)c(OC)c2)n1)c1ccccc1 (stereo not given) | > 4.5 µg/mL
36 | COc1ccccc1Nc1nc2ccccc2n1-c1ncnc(Nc2cc(OC)c(OC)c(OC)c2)n1 | > 4.5 µg/mL
37 | CCN(CC)CCOc1cc(Nc2ncnc(Nc3cc(OC)c(OC)c(OC)c3)n2)ccc1OC | > 4.5 µg/mL
38 | CN(c1cccc(Cl)c1)c1ncnc(Nc2ccc(CC(=O)O)cc2)n1 | < 0.4 µg/mL
39 | CN(c1cccc(Cl)c1)c1ncnc(Nc2cc(Cl)c(Cl)c(Cl)c2)n1 | > 4.5 µg/mL
40 | COc1cc(Nc2ncnc(-n3c(N)nc4cc(C(F)(F)F)ccc43)n2)cc(OC)c1OC.COc1cc(Nc2ncnc(-n3c(N)nc4ccc(C(F)(F)F)cc43)n2)cc(OC)c1OC | > 4.5 µg/mL
41 | COc1ccccc1Nc1ncnc(-c2ccccc2)n1 | > 4.5 µg/mL
42 | C=CCNC(=O)c1ccc(-c2cc(Nc3ncnc(Nc4cc(OC)c(OC)c(OC)c4)n3)[nH]n2)cc1 | > 4.5 µg/mL
43 | COc1ccc(Nc2nc3ccccc3n2-c2ncnc(Nc3cc(OC)c(OC)c(OC)c3)n2)cc1OC | > 4.5 µg/mL
44 | COc1cc(Nc2ncnc(Nc3cc(OC)c(OC)c(OC)c3)n2)cc(OC)c1 | > 4.5 µg/mL
45 | c1ccc(Cn2ncc3cc(Nc4ncnc(Nc5ccc6ncsc6c5)n4)ccc32)cc1 | < 0.4 µg/mL
46 | NC(=O)c1cccc(Nc2ncnc(-n3c(=O)[nH]c4ccccc43)n2)c1 | > 4.5 µg/mL
47 | COc1cc(Nc2ncnc(Nc3ccc4[nH]ccc4c3)n2)cc(OC)c1OC | < 0.4 µg/mL
48 | COc1cc(Nc2ncnc(-n3c(Nc4ccc(C#N)cc4)nc4ccccc43)n2)cc(OC)c1OC | > 4.5 µg/mL
49 | CC(=O)NS(=O)(=O)c1ccc(Nc2ncnc(-n3c(=O)[nH]c4ccccc43)n2)cc1 | > 4.5 µg/mL
50 | O=c1[nH]c2ccccc2n1-c1ncnc(Nc2ccc3ccccc3c2)n1 | > 4.5 µg/mL

Row | Structure (SMILES) | IC50
51 | COc1cc(Nc2ncnc(Nc3ccc(N(C)C(C)=O)cc3)n2)cc(OC)c1OC | > 4.5 µg/mL
52 | CCOC(=O)Cc1ccc(Nc2ncnc(Nc3cc(-c4ccco4)n[nH]3)n2)cc1 | 0.4 to 2.4 µg/mL (≈ 0.987 to 5.92 µM)
53 | COc1cc(Nc2ncnc(Nc3ccc(Cl)cc3F)n2)cc(OC)c1OC | < 0.4 µg/mL
54 | Nc1ncnc(Nc2nc(-c3ccc(Cl)cc3)cs2)n1 | > 4.5 µg/mL
55 | COc1cc(Nc2ncnc(-c3cccnc3Cl)n2)cc(OC)c1OC | > 4.5 µg/mL
56 | COc1cc(Nc2ncnc(-n3c(Nc4ccc(N(C)C)cc4)nc4ccccc43)n2)cc(OC)c1OC | > 4.5 µg/mL
57 | COc1cc(Nc2ncnc(-n3c(Nc4cc(OC)c(OC)c(OC)c4)nc4ccccc43)n2)cc(OC)c1OC | > 4.5 µg/mL
58 | COc1cc(Nc2ncnc(-n3cc(CC(N)=O)c4ccccc43)n2)cc(OC)c1OC | > 4.5 µg/mL
59 | COc1cc(Nc2ncnc(N3CCN(c4ncccn4)CC3)n2)cc(OC)c1OC | > 4.5 µg/mL
60 | COc1cc(Nc2ncnc(-n3c(N)nc4ccccc43)n2)cc(OC)c1OCCN1CCOCC1 | > 4.5 µg/mL
61 | CCOc1cccc(Nc2ncnc(N3CCCc4cc(C)ccc43)n2)c1 | < 0.4 µg/mL
62 | COc1cc(Nc2ncnc(-n3c(NCc4ccccc4C)nc4ccccc43)n2)cc(OC)c1OC | > 4.5 µg/mL
63 | COC(=O)c1sccc1Nc1ncnc(Nc2cc(OC)c(OC)c(OC)c2)n1 | > 4.5 µg/mL
64 | COc1cc(Nc2ncnc(-n3ccc4cc(F)ccc43)n2)cc(OC)c1OC | > 4.5 µg/mL
65 | COc1cc(Nc2ncnc(Nc3cc(-c4ccc(C(=O)N(C)C)cc4)n[nH]3)n2)cc(OC)c1OC | 0.4 to 2.4 µg/mL (≈ 0.815 to 4.89 µM)
66 | COc1cc(Nc2ncnc(-n3c(Nc4cccc5cccnc45)nc4ccccc43)n2)cc(OC)c1OC | > 4.5 µg/mL
67 | COc1cc(Nc2ncnc(-n3cc(CCO)c4ccccc43)n2)cc(OC)c1OC | > 4.5 µg/mL
68 | CC(C)(C)OC(=O)NCc1ccc(Nc2ncnc(Nc3cc(-c4ccco4)n[nH]3)n2)cc1 | 0.4 to 2.4 µg/mL (≈ 0.892 to 5.35 µM)
69 | COc1ccc(CNc2nc3ccccc3n2-c2ncnc(Nc3cccc(C(=O)O)c3)n2)cc1 | > 4.5 µg/mL
70 | COc1cc(Nc2ncnc(Nc3cc(C)nn3C)n2)cc(OC)c1OC | 3.5 to 4.5 µg/mL and > 4.5 µg/mL
71 | COc1ccc(Nc2ncnc(-n3c(N)nc4ccccc43)n2)cc1 | 2.4 to 3.5 µg/mL (≈ 7.2 to 10.5 µM)
72 | O=c1[nH]c2ccccc2n1-c1ncnc(Nc2ccccc2Cl)n1 | 0.4 to 2.4 µg/mL (≈ 1.18 to 7.08 µM)
73 | C=CCNc1ncccc1-c1ncnc(Nc2ccc(C(N)=O)cc2)n1 | > 4.5 µg/mL
74 | COc1ccc(Oc2ncnc(Nc3cc(OC)c(OC)c(OC)c3)n2)cc1 | 2.4 to 3.5 µg/mL (≈ 6.24 to 9.11 µM)
75 | COc1cc(Nc2ncnc(-n3c(NCc4ccccn4)nc4ccccc43)n2)cc(OC)c1OC | > 4.5 µg/mL
